The conditions of data set [1]: reason for not progressing in clinical development; cited from earlier work.
In the next data set the test system is HCT15 tumor cells. The experiment in a line: HCT15 tumor model in athymic nude mice (IgG resistant colon tumor model). Type of data set: in vivo. Particulars: 3 mg/kg IgM 5 times daily i.v.; compared with 3 mg/kg anti-DR5 IgG and 80 mg/kg Irinotecan.

Method for HCT15 tumor cells: Combination therapy with an anti-DR5 IgM antibody and standard of care Irinotecan was assessed in an HCT15 tumor model as follows.
In the first experiment, anti-DR5 IgG, anti-DR5 IgM, and Irinotecan monotherapies were compared. Athymic nude mice were subcutaneously implanted with 1×10^7 HCT15 tumor cells.
When the tumors reached 150-200 mm^3, the animals were dosed intravenously with either vehicle 5 times daily, 3 mg/kg of anti-DR5 IgM 5 times daily, 80 mg/kg of Irinotecan (Sigma I1406) 3 times within the first week, or the combined anti-DR5 IgM and Irinotecan dosing regimens.

On to `CC1(C)CCC(c2ccc(Cl)cc2)=C(CN2CCN(c3ccc(C(=O)NS(=O)(=O)c4ccc(N[C@H](CCN5CCOCC5)CSc5ccccc5)c(S(=O)(=O)C(F)(F)F)c4)cc3)CC2)C1` [ABT-263, 4-(4-{[2-(4-Chlorophenyl)-5,5-dimethyl-1-cyclohexen-1-yl]methyl}-1-piperazinyl)-N-[(4-{[(2R)-4-(4-morpholinyl)-1-(phenylsulfany)-2-butanyl]amino}-3-[(trifluoromethyl)sulfonyl]phenyl)sulfonyl]benzamide], for which the side effects entry in data set [1] is listed as “dose-limiting side effects”.
On to `CN(C)CC[C@H](CSc1ccccc1)Nc1ccc(S(=O)(=O)NC(=O)c2ccc(N3CCN(Cc4ccccc4-c4ccc(Cl)cc4)CC3)cc2)cc1[N+](=O)[O-]` [ABT-737, 4-{4-[(4′-Chloro-2-biphenylyl)methyl]-1-piperazinyl}-N-[(4-{[(2R)-4-(dimethylamino)-1-(phenylsulfanyl)-2-butanyl]amino}-3-nitrophenyl)sulfonyl]benzamide], for which, in data set [1], the bioavailability result was “low” and the solubility entry is “low”.

B1: anti-DR5 IgM Mab #2: anti-DR5 IgM comprising VH and VL SEQ ID NO: 5 and SEQ ID NO: 6, constructed as in US 2018-0009897 (antibody, V domains shown)
VH: QVQLQESGPGLVKPSQTLSLTCTVSGGSISSGDYFWSWIRQLPGKGLECIGHIHNSGTTYYNPSLKSRVTISVDTSKKQFSLRLSSVTAADTAVYYCARDRGGDYYYGMDVWGQGTTVTVSS
VL: EIVLTQSPGTLSLSPGERATLSCRASQGISRSYLAWYQQKPGQAPSLLIYGASSRATGIPDRFSGSGSGTDFTLTISRLEPEDFAVYYCQQFGSSPWTFGQGTKVEIK
modifications: IgM constant regions
As for B1, the “efficacy of monotherapies (tumor volume, overall survival)” value in the data set with HCT15 tumor cells was “most effective”.
